The record followed here is patent US12233129B2, “Methods and compositions for the treatment of cancer” (priority 2019, dated 2025).

The structures appear in SMILES notation. “Also recorded” adds a separate entry of the source.

Common to all, as to assay type: cell-based, human
For assay [1], the system named is p53. The experiment in a line: Western blot of p53 in cytoplasmic and nuclear fractions of HCT-116 cells. As to conditions: VTD 10 and 30 μM. The text has this: We next performed a clonogenic survival assay (S4E) to determine colony formation in cancer cells in the presence and absence of VTD. […] At the same time, we measured the mot-2, p53, and UBXN2A protein levels in all these cell lines. […] To verify whether VTD-induced cell death is mediated through the UBXN2A-mot-2-p53 axis, we looked at the expression of p53 in the cytoplasm and nucleus of HCT-116 cells following VTD treatment. […] Due to a high cell death in higher doses of VTD, we could not use WB analysis for reliable p53 and UBXN2A detection and quantification. Finally, we checked the effect of VTD on non-cancerous cell lines. […]
Nuclear and cytoplasmic fractions were prepared from the cells using NE-PER Nuclear and Cytoplasmic Extraction Reagents (Pierce, IL, USA) according to the manufacturer's instructions. Protein concentrations were determined by BCA assay followed by SDSPAGE and WB analysis with the appropriate antibodies (Supplementary Table S3).
FIG. 17: Induction of apoptosis and in vitro cytotoxicity by VTD in a human cancer cell line with different statuses of p53 and mot-2. […] After incubation, dead cells were washed off, and the remaining attached cells were calculated by counting in five random fields using the Axiovert 200 M inverted microscope and AxioVision software (cell detachment assay). The % of cells attached was calculated as % of control cells. […]
Background: In western blotting, separated proteins are transferred to a membrane and probed.

For assay [2], the system named is UBXN2A silenced clones of HCT-116. Put plainly: Viability (MTT) and cell death (Sytox red flow cytometry) of UBXN2A silenced cells. As for the experimental part: We decided to confirm whether VTD-induced tumor suppression is indeed mediated via the UBXN2A-mot-2-p53 axis (FIG. 18H). After initial verification with WB (FIG. 18A), HCT-116 (p53+/+ and p53 −/−) and LoVo were treated with VTD for 24, 48, and 72 hours (FIG. 18B-D). […] We defined this phenomenon as a delayed cytotoxic response, since it occurs through UBXN2A transcription, as previously described for other anti-cancer agents. […] In the second set of experiments, we treated two stable UBXN2A silenced clones of HCT-116 along with controls with VTD. […] Staurosporine-treated cells were used as a positive control (S4F). […] Finally, to understand the contribution of mot-2 to the anti-cancer mechanism of VTD, we used a mot-2 inhibitor known as MKT-077 [7] along with VTD in well-differentiated SW-48 (WT-p53) colon cancer cells for 72 hours. Due to the critical role of mot-2 in the mitochondria, we could not use a silencing strategy for mot-2 in this set of experiments.
The viability of cells was calculated as % of control.
FIG. 18: Veratridine (VTD) functions via the UBXN2A-mot-2-p53 axis. (A) WB confirmed the presence and the absence of p53 protein in HCT-116 p53^(+/+) and HCT-116 p53^(−/−) cancer cell lines, respectively. […] (F) In another set of experiments, UBXN2A-silenced cells were treated with VTD (100, 200, and 300 μM) for 24 hours. […]
A general note: In flow cytometry, cells or beads pass a laser one at a time.

Assay [3] deals with SW480 colon cancer cell line. The experiment in a line: Flow cytometry of stem cell markers. To be noted: VTD 72 hours. As for the experimental part:
FIG. 24 panels A-D are examples of FlowJo analysis of CD44 biomarker in SW480 cells treated with VTD for 72 hours.

For `COc1ccc(C(=O)O[C@H]2CC[C@@]3(C)[C@@H]4CC[C@H]5[C@]6(O)C[C@H](O)[C@@]7(O)[C@@H](CN8C[C@@H](C)CC[C@H]8[C@@]7(C)O)[C@]6(O)C[C@@]53O[C@]24O)cc1OC` [VTD, Veratridine], the “p53 levels in cytoplasm and nucleus (WB)” value in assay [1] is “increases WT-p53 levels both in the cytoplasm and nucleus; also recorded: increases p53 in both cytoplasm and nucleus compartments in a dose-dependent manner”. The “cell viability of UBXN2A silenced cells versus control cells upon VTD” value in assay [2] (MTT) is “greater cell viability than control cells; also recorded: significantly higher as compared to control cells”. The “cell death (Sytox red) of UBXN2A silenced cells upon VTD” value in assay [2] (VTD 100, 200 and 300 μM, 24 hours) is listed as “significant decrease in the cell death; also recorded: significantly decreases cell death”. In assay [3], the “CD44+ stem cell population” value is recorded as “significant reduction”, the “CD133+ stem cell population” value is “significant reduction” and the “LgR5+ stem cell population” value is reported as “significant reduction”.
